This data set in a line: Half-life in human serum administered once daily.

In general, half-life refers to the time in which the quantity being followed falls by half. A high value points to slow decline. The molecule `Nc1nc(=O)n([C@@H]2CS[C@H](CO)O2)cc1F` [EMTRICITABINE] had a half-life of 10 h.

The values above are taken from ChEMBL document CHEMBL4385590, “A Survey of the Structures of US FDA Approved Combination Drugs” (J Med Chem, 2019).
